Measured values reported in patent US7388006B2, “Non-steroidal progesting” (Bayer Schering Pharma AG, priority 2002, dated 2008).

Legend:
[1] = biological target: T1, androgen receptor (AR) (Homo sapiens, UniProt P10275); experiment: Binding affinity for the androgen receptor
T1 sequence (P10275 1-920): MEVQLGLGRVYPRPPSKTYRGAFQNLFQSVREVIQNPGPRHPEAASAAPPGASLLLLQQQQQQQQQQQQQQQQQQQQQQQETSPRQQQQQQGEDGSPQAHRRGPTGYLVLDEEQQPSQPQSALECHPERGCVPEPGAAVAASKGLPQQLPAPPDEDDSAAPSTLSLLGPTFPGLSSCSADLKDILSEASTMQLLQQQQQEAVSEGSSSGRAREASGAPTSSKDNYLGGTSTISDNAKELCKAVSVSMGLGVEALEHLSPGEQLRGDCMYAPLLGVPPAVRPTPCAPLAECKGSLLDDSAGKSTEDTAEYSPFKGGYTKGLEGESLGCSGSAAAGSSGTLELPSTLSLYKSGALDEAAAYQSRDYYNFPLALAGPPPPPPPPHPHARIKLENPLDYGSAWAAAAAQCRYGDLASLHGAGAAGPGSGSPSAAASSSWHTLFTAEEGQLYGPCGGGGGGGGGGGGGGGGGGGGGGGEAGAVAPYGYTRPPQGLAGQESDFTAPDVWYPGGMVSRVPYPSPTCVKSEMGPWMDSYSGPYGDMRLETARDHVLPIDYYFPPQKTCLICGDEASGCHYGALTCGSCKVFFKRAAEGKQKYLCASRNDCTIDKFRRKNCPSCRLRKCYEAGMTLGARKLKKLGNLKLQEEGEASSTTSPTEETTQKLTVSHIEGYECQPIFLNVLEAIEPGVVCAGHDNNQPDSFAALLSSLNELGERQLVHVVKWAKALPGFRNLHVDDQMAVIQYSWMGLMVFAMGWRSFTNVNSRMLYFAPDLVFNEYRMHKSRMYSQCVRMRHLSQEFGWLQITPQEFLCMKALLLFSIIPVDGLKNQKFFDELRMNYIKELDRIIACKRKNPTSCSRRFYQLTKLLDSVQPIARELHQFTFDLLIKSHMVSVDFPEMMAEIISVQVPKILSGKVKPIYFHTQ

[2] = tested on: rat mammary epithelium; experiment: MIB-5 immunohistochemistry, proliferation of the mammary epithelium; assay type: in vivo; conditions: FIG. 2
Description: In order to determine the effects of test progestins according to the present invention, in particular compound ((+)-1), in mammary gland differentiation and proliferation, premature female rats (Wistar Han, SPF) are ovariectomized at the age of 21 days, 4 to 6 days before treatment start. The animals are treated for 6 days with standard estrogen (estrone (E1), 70 μg/kg) and the test progestin ((+)-1) (application volume: 0.1 ml/50 g body weight; vehicle: benzylbenzoate/castor oil (1+4 v/v); subcutaneous). Control groups are e.g.: vehicle, estrone without progestin, estradiol together with a known progestin, e.g. R5020 (promegestone). After the 6-day treatment the animals are killed with carbon dioxide.
For the whole mount staining, animals are shaved in the left abdominal inguinal mammary region, which is cut from the body together with the skin. For the histological/immunohistochemical analyses the right abdominal inguinal mammary gland is cut from the body together with the connective-tissue adhered thereto and fixed in 3.7% formalin in PBS (phosphate buffer saline; without Ca^2+/Mg^2+).
For a more detailed evaluation of the proliferation of the mammary epithelium, cells are stained with the proliferation marker MIB-5 as follows (cf. FIG. 2): Mammary glands are fixed in 4% formaldehyde/PBS for 24 h and embedded in paraffm. 4 μm sections are spread on slides, deparaffinized, treated with microwaves for 10 min. in citrate buffer pH 6.0 and rinsed with PBS. Slides are then blocked with 3% H2O2/methanol for 15 min., Blockingkit (Vektor, no. SP-2001) for 10 min. and rat serum (Sigma, no. S-7648) diluted 1:2 in PBS for 30 min to reduce nonspecific staining and rinsed in PBS. Slides are incubated for 1 hour with monoclonal antibody MIB-5 (Dianova, no. Dia-5055), which is specific for the rat Ki-67 antigen (1:200 diluted in PBS/0.2% BSA). […]
In order to characterize a test compound, the percentage of MIB-5 stained mammary epithelium cells is determined. […]

[3] = tested on: pregnancy in ovariectomized rats; experiment: Pregnancy maintenance test in rat; assay type: in vivo; conditions: for Maintenance of pregnancy, factor compared to R5020: potency relative to R5020
Description: In rats, castration induces termination of pregnancy. Progestins (combined with estrogens) are capable of maintaining pregnancy in castrated animals. However, the degree of pregnancy maintenance in castrated rats is optimal only in a defined dose range. Therefore, higher as well as lower doses generally induce a weaker effect. Accompanying treatment with defined doses of estrone (E1) increases the pregnancy maintaining effect of progestins.
Pregnant rats (Wistar Han, SPF) of 190 to 220 g (5 to 8 animals per dose) are ovariectomized on day 8 of pregnancy, 2 hours after the first substance administration. From day 8 to day 14, rats are daily treated with test progestin in combination with a standard dose of E1. One day later, animals are killed with carbon dioxide. For each animal, the number of living and dead fetuses is determined according to the heartbeat of the embryos. In case of empty uteri, the number of implantation sites is determined by means of staining with a 10% ammonium sulfide solution.
S.c. (subcutaneous) application: The test progestin is dissolved in benzyl benzoate/castor oil (1+4 v/v), and the daily dose is administered in a volume of 1 ml/kg body weight.
P.o. (peroral) application: The test progestin is suspended in a carrier liquid (85 mg Myrj^R in 100 ml 0.9% w/v NaCl solution), and the daily dose is administered in a volume of 2 ml/kg body weight.
I.p. (intraperitoneal) application: The test progestin is dissolved in propylene glycol and charged in miniature osmotic pumps (type 2001, 1.0 μl/h, 7 days), which are placed in the abdominal cavity of the rat.
The standard dose of estrone is 0.005 mg/kg body weight s.c. and is dissolved in benzyl benzoate/castor oil ([…]).
It is determined the pregnancy maintenance per animal [%], the pregnancy maintenance per dose (median of single values) and the EC50 (dose, at which pregnancy is maintained in 50% of the animals; 100% corresponds to control animals that are not ovariectomized). The results of the test are further discussed below in c).

O=C1OCc2cc(NC(=O)C(O)(CC3(c4cc(C(F)(F)F)ccc4F)CC3)C(F)(F)F)ccc21 (single isomer, unassigned; (+)) [((+)-1), (+)-5-{2-hydroxy-3-[1-(2-fluoro-5-trifluoromethylphenyl)-cyclopropyl]-2-trifluoromethyl-propionylamino}-phthalide]
Binding affinity for the androgen receptor (AR) [1]: moderate binding affinity | MIB-5 positive cells ([2]; 1 mg/kg/d): ~12% | MIB-5 positive cells, dose dependence in words ([2]; increasing concentrations): dose-dependent decrease of MIB-5 positive cells | Androgenic activity in the pregnancy maintenance test ([3]; dose 100 times higher than the dose required for maintaining pregnancy): no androgenic activity | Pregnancy-maintaining activity EC50 value ([3]; rat): 12 µg/kg/day | Maintenance of pregnancy, factor compared to R5020 ([3]; rat): eight times as potent | Maintenance of pregnancy, factor compared to R5020 ([3]; rat, listed as ((+)−1)): 8
